In patent US11013696B2, “Lipids and lipid compositions for the delivery of active agents” (Novartis AG, priority 2013, dated 2021):

How the values were obtained:
mouse Erythropoietin = test: Mouse EPO ELISA after IV injection of encapsulated mEPO mRNA; format: in vivo; conditions: 0.2 mpk, ob/ob
Experimental: A rat anti-mouse Erythropoietin antibody is coated on 384-well white microtiter plates overnight, then blocked for assay. Then, plasma samples are diluted in a casein-based sample diluent and incubated on the plate with buffer controls and mouse EPO standards. The plate is then washed to remove unbound material. A biotinylated rat anti-mouse Erythropoietin antibody is then added to the plate to detect mouse EPO bound by the capture antibody. The plate is washed again and a streptavidin-conjugated horseradish peroxidase reagent is incubated on the plate. A third wash step is performed and a chemiluminescent reagent is added to the plate and immediately read by a capable plate reader using all wavelengths and a 50 millisecond integration time. Unknown samples are interpolated off the mouse EPO standard curve.

Factor VII = test: Mouse Factor VII dosing and plasma Factor VII activity assay (FVII siRNA LNP, IV); format: in vivo; conditions: 0.03 mpk, XXX mice
Experimental: Female CD-1 mice were received from Harlan Labs and maintained on standard lab chow and water ad libitum. The animals weighed approximately 25 gr at time of dosing. Formulated Factor VII siRNA was administered as a single dose intravenously via the lateral tail vein. Approximately 48 hours after injection, the mice were euthanized by CO2 inhalation followed by exsanguination through the vena cava.
Plasma collected from injected mice was assayed for Factor VII enzyme activity using the Biophen FVII kit from Hyphen Biomedical (catalog number 221304). An assay standard curve was prepared using pooled plasma aliquots from the vehicle control animals. All samples were diluted to fall within the linear range of the standard curve and Factor VII activity relative to control plasma was reported.
Lipid nanoparticles comprising lipid compounds of formula (I) and the FVII siRNA duplex sequence listed above were tested in the Factor VII Activity Assay. The results of this assay are given in Table 34 below as a percent knock down of plasma Factor VII enzyme activity at a dose of 0.3 mg/kg and 0.03 mg/kg.

Row | SMILES | Expression of protein following IV injection of encapsulated mRNA (mouse Erythropoietin) [ng/mL] | FVII knock-down following IV injection of encapsulated siRNA (Factor VII) [%/0.03]
1 | CCCCCCCCCCCCC(CCOC(=O)CCCCC(COC(=O)CCCCCCC)COC(=O)CCCCCCC)OC(=O)OCCCN(CC)CC (centres unmarked) [Example 1, 2-(10-dodecyl-3-ethyl-8,14-dioxo-7,9,13-trioxa-3-azaoctadecan-18-yl)propane-1,3-diyl dioctanoate] | 247.6 | 
2 | CCCCC/C=C\C/C=C\CCCCCCCC(=O)OCC(COC(=O)CCCCCCC/C=C\C/C=C\CCCCC)OC(=O)CCC(CCCCCCCCCCCC)OC(=O)OCCCN(C)C (centres unmarked) [Example 80, (9Z,9′Z,12Z,12′Z)-2-((4-(((3-(dimethylamino)propoxy)carbonyl)oxy)hexadecanoyl)oxy)propane-1,3-diyl bis(octadeca-9,12-dienoate)] |  | 95
